Laboratory results published in patent publication US20040102423A1, “Spironolactone and angiotensin II antagonist combination therapy for treatment of congestive heart failure” (G.D. Searle & Co., priority 1995, published 2004).
Like-named read-outs stand apart in the source and are kept apart here.

Assays:
[1] = target: angiotensin II AT1 receptor; assay: Assay A: Angiotensin II binding activity, rat uterine membrane preparation, 125I-AII displacement
Description: Assay A: Antiotensin II Binding Activity
Compounds of the invention were tested for ability to bind to the smooth muscle angiotensin II receptor using a rat uterine membrane preparation. […] Rat uterine membranes were prepared from fresh tissue. All procedures were carried out at 4° C. Uteri were stripped of fat and homogenized in phosphate-buffered saline at pH 7.4 containing 5 mM EDTA. The homogenate was centrifuged at 1500×g for 20 min., and the supernatant was recentrifuged at 100,000×g for 60 min. The pellet was resuspended in buffer consisting of 2 mM EDTA and 50 mM Tris-HCl (pH 7.5) to a final protein concentration of 4 mg/ml. […] The reaction was initiated by the addition of membrane protein and the mixture was incubated at 25° C. for 60 min. The incubation was terminated with ice-cold 50 mM Tris-HCl (pH 7.5) and the mixture was filtered to separate membrane-bound labelled peptide from the free ligand. The incubation tube and filter were washed with ice-cold buffer. Filters were assayed for radioactivity in a Micromedic gamma counter. Nonspecific binding was defined as binding in the presence of 10 μM of unlabelled AII. Specific binding was calculated as total binding minus nonspecific binding. […] Binding data were analyzed by a nonlinear least-squares curve fitting program.

pressor response to AII = assay: Assay C: In vivo intragastric pressor assay response for AII antagonists; set-up: species or system Sprague-Dawley rats; conditions: for inhibition in vivo at 30 mg/kg: read-out: Assay C Inhibition
rabbit aortic rings = assay: Assay B: In vitro vascular smooth muscle response for AII (antagonist activity, pA2); format: cell-based; conditions: Oryctolagus cuniculus, two values in a cell = two determinations
Description: Assay B: In Vitro Vascular Smooth Muscle-Response for AII
The compounds of the invention were tested for antagonist activity in rabbit aortic rings. Male New Zealand white rabbits (2-2.5 kg) were sacrificed using an overdose of pentobarbital and exsanguinated via the carotid arteries. The thoracic aorta was removed, cleaned of adherent fat and connective tissue and then cut into 3-mm ring segments. The endothelium was removed from the rings by gently sliding a rolled-up piece of filter paper into the vessel lumen. The rings were then mounted in a water-jacketed tissue bath, maintained at 37° C., between moveable and fixed ends of a stainless steel wire with the moveable end attached to an FT03 Grass transducer coupled to a Model 7D Grass Polygraph for recording isometric force responses. The bath was filled with 20 ml of oxygenated (95% oxygen/5% carbon dioxide) Krebs solution of the following composition (mM): 130 NaCl, 15 NaHCO3, […], 1.2 NaH2PO4, 1.2 MgSO4, 2.5 CaCl2, and 11.4 glucose. The preparations were equilibrated for one hour before approximately one gram of passive tension was placed on the rings. Angiotensin II concentration-response curves were then recorded (3×10^−10 to 1×10^−5 M). Each concentration of AII was allowed to elicit its maximal contraction, and then AII was washed out repeatedly for 30 minutes before rechallenging with a higher concentration of AII. Aorta rings were exposed to the test antagonist at 10^−5 M for 5 minutes before challenging with AII. Adjacent segments of the same aorta ring were used for all concentration-response curves in the presence or absence of the test antagonist. The effectiveness of the test compound was expressed in terms of pA2 values and were calculated according to H. O. Schild [Br. J. Pharmacol. Chemother., 2, 189-206 (1947)]. The pA2 value is […] which increases the EC50 value for AII by a factor of two. Each test antagonist was evaluated in aorta rings from two rabbits.

[2] = in vivo pressor response, 30 mg/kg intraduodenally
[3] = Rattus norvegicus, intraduodenal, in vivo pressor response, 30 mg/kg intraduodenally
[4] = Rattus norvegicus, po, in vivo pressor response, 3 mg/kg intragastrically
[5] = in vivo pressor response, 3 mg/kg intragastrically

SMILES	IC50 [1] [nM]	inhibition in vivo at 3 mg/kg (pressor response to AII; [4]) [%]	Assay C Duration (pressor response to AII; [5]) [min]	further results
COC(=O)[C@@H]1CC2=CC(=O)CC[C@]2(C)C23O[C@@H]2C[C@@]2(C)[C@@H](CC[C@@]2(O)CCC(=O)O)[C@H]13.[K+] (stereo partly shown) [Compound 5]	200	–	–	inhibition in vivo at 30 mg/kg (pressor response to AII; Rattus norvegicus, intraduodenal): 38%; Assay C Duration (pressor response to AII; [2]): 20 to 30 min
C[C@]12CCC(=O)C=C1C1CC1[C@H]1[C@@H]3CC[C@@]4(CCC(=O)O4)[C@@]3(C)CC3O[C@]312 (stereo partly shown) [Compound 9]	700	–	–	inhibition in vivo at 30 mg/kg (pressor response to AII; [3]): 80%; inhibition in vivo at 100 mg/kg (pressor response to AII; Rattus norvegicus, intraduodenal, in vivo pressor response, 100 mg/kg intraduodenally): 100%; Assay C Duration (pressor response to AII; [2]): 75 min; Assay C Duration (pressor response to AII; in vivo pressor response, 100 mg/kg intraduodenally): 130 min
CCOC(=O)[C@@H]1CC2=CC(=O)CC[C@]2(C)C23O[C@@H]2C[C@@]2(C)[C@@H](CC[C@@]24CCC(=O)O4)[C@H]13 (stereo partly shown) [Compound 10]	4.9	–	–	inhibition in vivo at 3 mg/kg (pressor response to AII; Rattus norvegicus, intraduodenal, in vivo pressor response, 3 mg/kg intraduodenally): 86%; inhibition in vivo at 30 mg/kg (pressor response to AII; [3]): 100%; Assay C Duration (pressor response to AII; in vivo pressor response, 3 mg/kg intraduodenally): 100 min; Assay C Duration (pressor response to AII; [2]): 240 min
CCCCc1nc(C(F)(F)C(F)(F)C(F)(F)F)nn1Cc1ccc(-c2ccccc2-c2nnn[nH]2)cc1 [Compound 81]	–	–	–	Kb (rabbit aortic rings): 10 nM
CCCCc1nc2c(O)nnc(CCC)c2n1Cc1ccc(-c2ccccc2-c2nnn[nH]2)cc1 [Compound 125]	–	35	>240	–
CCCCc1nc2cnncc2n1Cc1ccc(-c2ccccc2-c2nnn[nH]2)cc1 [Compound 128]	–	–	–	Kb (rabbit aortic rings): 2.34 nM
CCCCc1nc(CCCC)n(Cc2ccc(-n3ccc(-c4nnn[nH]4)c3)cc2)n1 [Compound 153]	13	25	>180	–
CCCCc1cn(CCc2cccs2)c(=O)n1Cc1ccc(-c2ccccc2-c2nnn[nH]2)nc1 [Compound 220]	7	75	120	–
CCCCc1cn(CCc2ccccc2)c(=O)n1Cc1ccc(-c2ccccc2-c2nnn[nH]2)nc1 [Compound 221]	4.8	25	>180	–
CCCCc1cn(CCC2=CCCC2)c(=O)n1Cc1ccc(-c2ccccc2-c2nnn[nH]2)nc1 [Compound 223]	14	20	>180	–
CCCCc1cn(-c2ccccc2C)c(=O)n1Cc1ccc(-c2ccccc2-c2nnn[nH]2)nc1 [Compound 228]	4.5	80	>180	–
CCCCc1cn(-c2ccccc2OC)c(=O)n1Cc1ccc(-c2ccccc2-c2nnn[nH]2)nc1 [Compound 229]	19	40	>180	–
CCCCc1cn(-c2c(F)cccc2F)c(=O)n1Cc1ccc(-c2ccccc2-c2nnn[nH]2)nc1 [Compound 231]	3.6	75	>180	–
CCCCc1cn(CCCC)c(=O)n1Cc1ccc(-c2ccccc2-c2nnn[nH]2)cn1 [Compound 234]	5	20	–	–
CCCCc1cn(CCCC)c(=O)n1Cc1ccc(-c2cnccc2-c2nnn[nH]2)cc1 [Compound 236]	4.9	70	>180	–
CCCCc1cn(CCCC)c(=O)n1Cc1ccc(-c2cccnc2-c2nnn[nH]2)cc1 [Compound 238]	1.7	15	>180	–
CCCCc1cn(-c2cccn2CC)c(=O)n1Cc1ccc(-c2ccccc2-c2nnn[nH]2)nc1 [Compound 249]	4.4	20	>180	–
CCCCc1nc(CCCC)n(Cc2ccc(-c3ncccc3-c3nnn[nH]3)cc2)n1 [Compound 256]	4.1	30	>180	–

Continued, in another order:

IC50 [1] [nM]	SMILES	inhibition in vivo at 3 mg/kg (pressor response to AII; [4]) [%]	Assay C Duration (pressor response to AII; [5]) [min]	further results
26	CCCCn1nc(C(O)CCC)nc1Cc1ccc(-c2ccccc2-c2nnn[nH]2)nc1 (stereo not shown) [Compound 170]	40	>180	–
28	CCCCn1nc(C(=O)CCC)nc1Cc1ccc(-c2ccccc2-c2nnn[nH]2)nc1 [Compound 171]	0	0	–
27	CCn1nc(C(C)(F)F)nc1Cc1ccc(-c2ccccc2-c2nnn[nH]2)nc1 [Compound 175]	0	0	–
26	CCCCn1nc(C(C)(F)F)nc1Cc1ccc(-c2ccccc2-c2nnn[nH]2)nc1 [Compound 177]	15	180	–
20	CCCn1nc(C(F)(F)CCC)nc1Cc1ccc(-c2ccccc2-c2nnn[nH]2)nc1 [Compound 180]	25	180	–
21	CCCCn1nc(C(F)(F)CCC)nc1Cc1ccc(-c2ccccc2-c2nnn[nH]2)nc1 [Compound 181]	20	180	–
38	CCCCn1nc(C(OC)OC)nc1Cc1ccc(-c2ccccc2-c2nnn[nH]2)nc1 [Compound 186]	25	18	–
11	CCCCn1nc(C(C)(OC)OC)nc1Cc1ccc(-c2ccccc2-c2nnn[nH]2)nc1 [Compound 193]	10	180	–
20	CCCCn1cc(CCC(C)C)n(Cc2ccc(-c3ccccc3-c3nnn[nH]3)nc2)c1=O [Compound 200]	45	>180	–
16	CCCCn1cc(CCC2CC2)n(Cc2ccc(-c3ccccc3-c3nnn[nH]3)nc2)c1=O [Compound 204]	75	>180	–
22	CCCCc1cn(CC(C)C)c(=O)n1Cc1ccc(-c2ccccc2-c2nnn[nH]2)nc1 [Compound 208]	50	>180	–
23	CCCCc1cn(C(C)(C)C)c(=O)n1Cc1ccc(-c2ccccc2-c2nnn[nH]2)nc1 [Compound 212]	15	180	–
9.4	CCCCc1cn(CCC2CC2)c(=O)n1Cc1ccc(-c2ccccc2-c2nnn[nH]2)nc1 [Compound 217]	65	>180	–
2.6	CCCCc1cn(-c2ccccc2C(C)C)c(=O)n1Cc1ccc(-c2ccccc2-c2nnn[nH]2)nc1 [Compound 230]	25	>180	–
6.9	CCCCc1cn(-c2c(OC)cccc2OC)c(=O)n1Cc1ccc(-c2ccccc2-c2nnn[nH]2)nc1 [Compound 241]	40	>180	–
43	CCCCc1nc(CCCC)n(Cc2ccc(-c3ccccc3-c3nnn[nH]3)cn2)n1 [Compound 250]	0	–	–
25	CCCCc1nc(C(=O)N(C)C(C)(C)C)n(Cc2ccc(-c3ccccc3-c3nnn[nH]3)nc2)n1 [Compound 267]	25	>180	–
520	CCCCc1nc(C(=O)NC)nn1Cc1ccc(-c2ccccc2-c2nnn[nH]2)nc1 [Compound 268]	0	–	–
14	CCCCc1nc(-c2ccccc2)n(Cc2ccc(-c3ccccc3-c3nnn[nH]3)nc2)n1 [Compound 271]	20	–	–
97	CCCCc1nc(-c2ccccc2C)nn1Cc1ccc(-c2ccccc2-c2nnn[nH]2)nc1 [Compound 272]	70	>180	–
